Source: ChEMBL document CHEMBL5579809, “Exploration of bromodomain ligand-linker conjugation sites for efficient CBP/p300 heterobifunctional degrader activity” (Bioorg Med Chem Lett, 2024)
Active and inactive are the calls of the source. The calls are words filed in the database; no cut-off is given here.

Columns and labels:
[1] = biological target: T1, Protein cereblon/Histone acetyltransferase p300 (Homo sapiens) (UniProt Q09472+Q96SW2); experiment: PROTAC activity at CRBN/HiBiT-tagged p300 in human HAP1 cells assessed as total cumulative degradation by measuring AUC at 10 nM measured over 24 hrs by luminescence based analysis; type: cell-based
[2] = biological target: T2, Protein cereblon/CREB-binding protein (Homo sapiens) (UniProt Q92793+Q96SW2); experiment: PROTAC activity at CRBN/HiBiT-tagged CBP in human HAP1 cells assessed as induction of CBP degradation by measuring maximal efficacy at 1 nM measured over 24 hrs by luminescence based analysis relative to control; type: cell-based
[3] = biological target: T1, Protein cereblon/Histone acetyltransferase p300 (Homo sapiens); experiment: PROTAC activity at CRBN/HiBiT-tagged p300 in human HAP1 cells assessed as induction of p300 degradation by measuring degradation rate at 1000 nM measured over 24 hrs by luminescence based analysis; type: cell-based
[4] = biological target: T1, Protein cereblon/Histone acetyltransferase p300 (Homo sapiens); experiment: PROTAC activity at CRBN/HiBiT-tagged p300 in human HAP1 cells assessed as induction of p300 degradation by measuring maximal efficacy at 100 nM measured over 24 hrs by luminescence based analysis relative to control; type: cell-based
[5] = biological target: T2, Protein cereblon/CREB-binding protein (Homo sapiens); experiment: PROTAC activity at CRBN/HiBiT-tagged CBP in human HAP1 cells assessed as induction of CBP degradation by measuring maximal efficacy at 0.1 nM measured over 24 hrs by luminescence based analysis relative to control; type: cell-based
[6] = biological target: T1, Protein cereblon/Histone acetyltransferase p300 (Homo sapiens); experiment: PROTAC activity at CRBN/HiBiT-tagged p300 in human HAP1 cells assessed as induction of p300 degradation by measuring maximal efficacy at 1000 nM measured over 24 hrs by luminescence based analysis relative to control; type: cell-based
[7] = biological target: T2, Protein cereblon/CREB-binding protein (Homo sapiens); experiment: PROTAC activity at CRBN/HiBiT-tagged CBP in human HAP1 cells assessed as total cumulative degradation by measuring AUC at 1000 nM measured over 24 hrs by luminescence based analysis; type: cell-based
[8] = biological target: T2, Protein cereblon/CREB-binding protein (Homo sapiens); experiment: PROTAC activity at CRBN/HiBiT-tagged CBP in human HAP1 cells assessed as induction of CBP degradation by measuring maximal efficacy at 10 nM measured over 24 hrs by luminescence based analysis relative to control; type: cell-based
[9] = biological target: T1, Protein cereblon/Histone acetyltransferase p300 (Homo sapiens); experiment: PROTAC activity at CRBN/HiBiT-tagged p300 in human HAP1 cells assessed as induction of p300 degradation by measuring degradation rate at 100 nM measured over 24 hrs by luminescence based analysis; type: cell-based
[10] = biological target: T2, Protein cereblon/CREB-binding protein (Homo sapiens); experiment: PROTAC activity at CRBN/HiBiT-tagged CBP in human HAP1 cells assessed as induction of CBP degradation by measuring maximal efficacy at 100 nM measured over 24 hrs by luminescence based analysis relative to control; type: cell-based
[11] = biological target: T2, Protein cereblon/CREB-binding protein (Homo sapiens); experiment: PROTAC activity at CRBN/HiBiT-tagged CBP in human HAP1 cells assessed as induction of CBP degradation by measuring degradation rate at 10 nM measured over 24 hrs by luminescence based analysis; type: cell-based
[12] = biological target: T1, Protein cereblon/Histone acetyltransferase p300 (Homo sapiens); experiment: PROTAC activity at CRBN/HiBiT-tagged p300 in human HAP1 cells assessed as induction of p300 degradation by measuring maximal efficacy at 10 nM measured over 24 hrs by luminescence based analysis relative to control; type: cell-based
[13] = biological target: T2, Protein cereblon/CREB-binding protein (Homo sapiens); experiment: PROTAC activity at CRBN/HiBiT-tagged CBP in human HAP1 cells assessed as total cumulative degradation by measuring AUC at 10 nM measured over 24 hrs by luminescence based analysis; type: cell-based
[14] = biological target: T1, Protein cereblon/Histone acetyltransferase p300 (Homo sapiens); experiment: Binding affinity to recombinant CRBN/p300 bromodomain (unknown origin) assessed as ternary complex formation at 10 to 100 nM by Alphascreen-based proximity assay; type: protein assay; settings: dose 10-100 nM
[15] = biological target: T1, Protein cereblon/Histone acetyltransferase p300 (Homo sapiens); experiment: PROTAC activity at CRBN/HiBiT-tagged p300 in human HAP1 cells assessed as induction of p300 degradation by measuring degradation rate at 0.1 nM measured over 24 hrs by luminescence based analysis; type: cell-based
[16] = biological target: T1, Protein cereblon/Histone acetyltransferase p300 (Homo sapiens); experiment: PROTAC activity at CRBN/HiBiT-tagged p300 in human HAP1 cells assessed as total cumulative degradation by measuring AUC at 100 nM measured over 24 hrs by luminescence based analysis; type: cell-based
[17] = biological target: T1, Protein cereblon/Histone acetyltransferase p300 (Homo sapiens); experiment: PROTAC activity at CRBN/HiBiT-tagged p300 in human HAP1 cells assessed as total cumulative degradation by measuring AUC at 1 nM measured over 24 hrs by luminescence based analysis; type: cell-based
[18] = biological target: T1, Protein cereblon/Histone acetyltransferase p300 (Homo sapiens); experiment: PROTAC activity at CRBN/HiBiT-tagged p300 in human HAP1 cells assessed as total cumulative degradation by measuring AUC at 0.1 nM measured over 24 hrs by luminescence based analysis; type: cell-based
[19] = biological target: T1, Protein cereblon/Histone acetyltransferase p300 (Homo sapiens); experiment: PROTAC activity at CRBN/HiBiT-tagged p300 in human HAP1 cells assessed as induction of p300 degradation by measuring degradation rate at 1 nM measured over 24 hrs by luminescence based analysis; type: cell-based
[20] = biological target: T2, Protein cereblon/CREB-binding protein (Homo sapiens); experiment: PROTAC activity at CRBN/HiBiT-tagged CBP in human HAP1 cells assessed as total cumulative degradation by measuring AUC at 0.1 nM measured over 24 hrs by luminescence based analysis; type: cell-based
[21] = biological target: T2, Protein cereblon/CREB-binding protein (Homo sapiens); experiment: PROTAC activity at CRBN/HiBiT-tagged CBP in human HAP1 cells assessed as induction of CBP degradation by measuring degradation rate at 1000 nM measured over 24 hrs by luminescence based analysis; type: cell-based
[22] = biological target: T1, Protein cereblon/Histone acetyltransferase p300 (Homo sapiens); experiment: PROTAC activity at CRBN/HiBiT-tagged p300 in human HAP1 cells assessed as induction of p300 degradation by measuring maximal efficacy at 1 nM measured over 24 hrs by luminescence based analysis relative to control; type: cell-based
[23] = biological target: T2, Protein cereblon/CREB-binding protein (Homo sapiens); experiment: PROTAC activity at CRBN/HiBiT-tagged CBP in human HAP1 cells assessed as total cumulative degradation by measuring AUC at 1 nM measured over 24 hrs by luminescence based analysis; type: cell-based
[24] = biological target: T1, Protein cereblon/Histone acetyltransferase p300 (Homo sapiens); experiment: PROTAC activity at CRBN/HiBiT-tagged p300 in human HAP1 cells assessed as total cumulative degradation by measuring AUC at 0.01 nM measured over 24 hrs by luminescence based analysis; type: cell-based
[25] = biological target: T1, Protein cereblon/Histone acetyltransferase p300 (Homo sapiens); experiment: PROTAC activity at CRBN/HiBiT-tagged p300 in human HAP1 cells assessed as induction of p300 degradation by measuring degradation rate at 10 nM measured over 24 hrs by luminescence based analysis; type: cell-based
[26] = biological target: T2, Protein cereblon/CREB-binding protein (Homo sapiens); experiment: PROTAC activity at CRBN/HiBiT-tagged CBP in human HAP1 cells assessed as total cumulative degradation by measuring AUC at 0.01 nM measured over 24 hrs by luminescence based analysis; type: cell-based
[27] = biological target: T1, Protein cereblon/Histone acetyltransferase p300 (Homo sapiens); experiment: PROTAC activity at CRBN/HiBiT-tagged p300 in human HAP1 cells assessed as total cumulative degradation by measuring AUC at 1000 nM measured over 24 hrs by luminescence based analysis; type: cell-based
[28] = biological target: T2, Protein cereblon/CREB-binding protein (Homo sapiens); experiment: PROTAC activity at CRBN/HiBiT-tagged CBP in human HAP1 cells assessed as induction of CBP degradation by measuring maximal efficacy at 1000 nM measured over 24 hrs by luminescence based analysis relative to control; type: cell-based
[29] = biological target: T1, Protein cereblon/Histone acetyltransferase p300 (Homo sapiens); experiment: PROTAC activity at CRBN/HiBiT-tagged p300 in human HAP1 cells assessed as induction of p300 degradation by measuring maximal efficacy at 0.1 nM measured over 24 hrs by luminescence based analysis relative to control; type: cell-based
[30] = biological target: T2, Protein cereblon/CREB-binding protein (Homo sapiens); experiment: PROTAC activity at CRBN/HiBiT-tagged CBP in human HAP1 cells assessed as induction of CBP degradation by measuring degradation rate at 1 nM measured over 24 hrs by luminescence based analysis; type: cell-based
[31] = biological target: T2, Protein cereblon/CREB-binding protein (Homo sapiens); experiment: PROTAC activity at CRBN/HiBiT-tagged CBP in human HAP1 cells assessed as induction of CBP degradation by measuring degradation rate at 0.1 nM measured over 24 hrs by luminescence based analysis; type: cell-based
[32] = biological target: T2, Protein cereblon/CREB-binding protein (Homo sapiens); experiment: PROTAC activity at CRBN/HiBiT-tagged CBP in human HAP1 cells assessed as total cumulative degradation by measuring AUC at 100 nM measured over 24 hrs by luminescence based analysis; type: cell-based
[33] = biological target: T2, Protein cereblon/CREB-binding protein (Homo sapiens); experiment: Binding affinity to recombinant CRBN/CBP bromodomain (unknown origin) assessed as ternary complex formation at 10 to 100 nM by Alphascreen-based proximity assay; type: protein assay; settings: dose 10-100 nM
[34] = biological target: T2, Protein cereblon/CREB-binding protein (Homo sapiens); experiment: PROTAC activity at CRBN/HiBiT-tagged CBP in human HAP1 cells assessed as induction of CBP degradation by measuring degradation rate at 100 nM measured over 24 hrs by luminescence based analysis; type: cell-based
[35] = biological target: Protein cereblon/Bromodomain-containing protein 4 (Homo sapiens) (UniProt O60885+Q96SW2); experiment: PROTAC activity at CRBN/HiBiT-tagged BRD4 in human HAP1 cells assessed as induction of BRD4 degradation measured over 24 hrs by luminescence based analysis; type: cell-based
Sequence of Protein cereblon/Bromodomain-containing protein 4 (Homo sapiens) (Q96SW2 whole entry, looked up, other chains not shown): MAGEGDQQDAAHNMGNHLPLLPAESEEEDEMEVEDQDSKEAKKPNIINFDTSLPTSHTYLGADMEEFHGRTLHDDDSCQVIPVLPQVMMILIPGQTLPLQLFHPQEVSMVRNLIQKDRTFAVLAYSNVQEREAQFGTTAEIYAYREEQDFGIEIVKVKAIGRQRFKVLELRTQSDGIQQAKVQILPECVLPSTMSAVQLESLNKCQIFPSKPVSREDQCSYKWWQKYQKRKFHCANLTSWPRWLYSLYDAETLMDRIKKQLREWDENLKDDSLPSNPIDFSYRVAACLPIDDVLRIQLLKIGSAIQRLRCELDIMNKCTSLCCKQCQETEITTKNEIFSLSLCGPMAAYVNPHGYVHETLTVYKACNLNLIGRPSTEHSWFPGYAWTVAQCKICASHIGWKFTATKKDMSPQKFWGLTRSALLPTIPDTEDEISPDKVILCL

T2 sequence (Q92793 2-2442 limits assumed): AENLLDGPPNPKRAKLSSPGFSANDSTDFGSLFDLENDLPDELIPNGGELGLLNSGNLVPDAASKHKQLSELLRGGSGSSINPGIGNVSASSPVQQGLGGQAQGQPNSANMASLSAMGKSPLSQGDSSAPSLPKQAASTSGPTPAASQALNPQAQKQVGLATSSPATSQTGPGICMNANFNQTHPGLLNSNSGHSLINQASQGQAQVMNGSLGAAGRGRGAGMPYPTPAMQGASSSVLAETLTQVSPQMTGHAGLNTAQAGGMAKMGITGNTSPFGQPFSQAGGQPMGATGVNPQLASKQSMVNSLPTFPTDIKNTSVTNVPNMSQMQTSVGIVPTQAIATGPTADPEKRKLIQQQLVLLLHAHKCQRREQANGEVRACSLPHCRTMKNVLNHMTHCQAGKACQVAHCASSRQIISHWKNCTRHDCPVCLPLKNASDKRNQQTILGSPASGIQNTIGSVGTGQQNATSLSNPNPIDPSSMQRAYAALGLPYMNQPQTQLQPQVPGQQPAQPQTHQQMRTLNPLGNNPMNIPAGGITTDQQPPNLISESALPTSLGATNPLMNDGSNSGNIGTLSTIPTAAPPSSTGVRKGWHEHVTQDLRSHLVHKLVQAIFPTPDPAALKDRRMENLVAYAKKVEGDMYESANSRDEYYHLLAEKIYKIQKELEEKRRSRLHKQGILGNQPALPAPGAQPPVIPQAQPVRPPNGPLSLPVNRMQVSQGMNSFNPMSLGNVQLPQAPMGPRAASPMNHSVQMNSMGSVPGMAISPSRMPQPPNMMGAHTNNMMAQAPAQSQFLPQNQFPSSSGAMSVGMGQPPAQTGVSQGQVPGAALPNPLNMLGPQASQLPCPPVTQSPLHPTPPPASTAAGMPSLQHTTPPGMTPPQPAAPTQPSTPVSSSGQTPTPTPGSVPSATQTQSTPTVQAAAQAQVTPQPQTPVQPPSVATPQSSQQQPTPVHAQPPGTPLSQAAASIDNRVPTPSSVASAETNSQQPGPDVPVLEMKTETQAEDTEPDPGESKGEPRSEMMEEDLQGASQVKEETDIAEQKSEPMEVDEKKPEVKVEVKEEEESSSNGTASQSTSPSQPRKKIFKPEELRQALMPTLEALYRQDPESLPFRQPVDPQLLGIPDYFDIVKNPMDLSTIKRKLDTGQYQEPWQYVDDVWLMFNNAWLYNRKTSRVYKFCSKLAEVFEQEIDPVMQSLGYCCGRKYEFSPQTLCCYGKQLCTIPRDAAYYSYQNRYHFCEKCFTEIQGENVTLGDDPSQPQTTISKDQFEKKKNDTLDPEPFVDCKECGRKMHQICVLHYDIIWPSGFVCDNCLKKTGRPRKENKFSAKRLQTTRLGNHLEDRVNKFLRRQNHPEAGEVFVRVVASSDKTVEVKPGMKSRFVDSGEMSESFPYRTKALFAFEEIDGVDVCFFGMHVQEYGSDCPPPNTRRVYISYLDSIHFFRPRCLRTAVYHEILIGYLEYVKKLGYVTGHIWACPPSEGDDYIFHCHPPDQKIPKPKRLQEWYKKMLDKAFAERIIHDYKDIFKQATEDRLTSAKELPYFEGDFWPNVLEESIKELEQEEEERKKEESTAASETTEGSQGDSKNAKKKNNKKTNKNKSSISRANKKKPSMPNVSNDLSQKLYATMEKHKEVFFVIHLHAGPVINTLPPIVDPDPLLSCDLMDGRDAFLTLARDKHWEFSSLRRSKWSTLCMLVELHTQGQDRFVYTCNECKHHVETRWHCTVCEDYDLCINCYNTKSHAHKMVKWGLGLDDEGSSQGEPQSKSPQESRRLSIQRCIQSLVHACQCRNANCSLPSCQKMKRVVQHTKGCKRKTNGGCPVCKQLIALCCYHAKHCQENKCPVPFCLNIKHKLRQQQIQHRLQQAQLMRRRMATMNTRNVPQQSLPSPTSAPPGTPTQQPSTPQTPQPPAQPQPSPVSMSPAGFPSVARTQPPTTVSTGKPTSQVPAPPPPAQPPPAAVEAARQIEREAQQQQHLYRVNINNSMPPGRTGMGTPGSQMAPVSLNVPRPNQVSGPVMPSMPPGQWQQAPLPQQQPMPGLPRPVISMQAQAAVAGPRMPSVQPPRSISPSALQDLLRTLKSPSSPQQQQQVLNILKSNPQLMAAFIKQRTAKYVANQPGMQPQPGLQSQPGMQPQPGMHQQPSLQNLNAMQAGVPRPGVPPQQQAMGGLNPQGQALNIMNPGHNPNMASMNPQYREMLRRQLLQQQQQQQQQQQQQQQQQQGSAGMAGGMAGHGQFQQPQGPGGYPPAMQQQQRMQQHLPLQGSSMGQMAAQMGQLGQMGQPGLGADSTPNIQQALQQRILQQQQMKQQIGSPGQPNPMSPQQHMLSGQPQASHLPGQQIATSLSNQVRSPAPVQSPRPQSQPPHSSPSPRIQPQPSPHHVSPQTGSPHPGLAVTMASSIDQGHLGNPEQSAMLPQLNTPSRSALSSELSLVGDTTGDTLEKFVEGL
T2 sequence (Q96SW2 whole entry partner): as the sequence (Q96SW2 whole entry, looked up, other chains not shown) above

SMILES: CNC(=O)N1CCc2c(c(N3CCCc4cc(-c5cnn(C)c5)c(C(F)(F)F)cc43)nn2C2CCN(C(=O)CCOCCOCCOCCOCCNc3ccc4c(c3)C(=O)N(C3CCC(=O)NC3=O)C4=O)CC2)C1 (stereo not drawn)
- AUC [1]: 5.2
- Emax [2]: 61%
- Activity [3]: 0.42 h⁻¹
- Emax [4]: 88%
- Emax [5]: 20%
- Emax [6]: 84%
- AUC [7]: 7.4
- Emax [8]: 85%
- Activity [9]: 1 h⁻¹
- Emax [10]: 88%
- Activity [11]: 1.3 h⁻¹
- Emax [12]: 82%
- AUC [13]: 4.4
- Activity [14]: Active
- Activity [15]: 1 10^-4/hr
- AUC [16]: 3.9
- AUC [17]: 12.3
- AUC [18]: 23.2
- Activity [19]: 0.41 h⁻¹
- AUC [20]: 20.8
- Activity [21]: 0.32 h⁻¹
- Emax [22]: 56%
- AUC [23]: 10.7
- AUC [24]: 26.5
- Activity [25]: 1.3 h⁻¹
- AUC [26]: 24.1
- AUC [27]: 6
- Emax [28]: 80%
- Emax [29]: 17%
- Activity [30]: 0.63 h⁻¹
- Activity [31]: 0.21 h⁻¹
- AUC [32]: 4
- Activity [33]: Active
- Activity [34]: 0.83 h⁻¹
- Activity [35]: inactive

SMILES: CNC(=O)N1CCc2c(c(N3CCCc4cc(-c5cnn(C)c5)c(C(F)F)cc43)nn2C2CCN(C(=O)CCOCCNc3ccc4c(c3)C(=O)N(C3CCC(=O)NC3=O)C4=O)CC2)C1 (stereo not drawn)
- AUC [1]: 9.2
- Emax [2]: 44%
- Activity [3]: 0.09 h⁻¹
- Emax [4]: 73%
- Emax [5]: 11%
- Emax [6]: 58%
- AUC [7]: 19.5
- Emax [8]: 68%
- Activity [9]: 0.29 h⁻¹
- Emax [10]: 65%
- Activity [11]: 0.31 h⁻¹
- Emax [12]: 71%
- AUC [13]: 10.3
- Activity [14]: Active
- AUC [16]: 9.4
- AUC [17]: 16.1
- AUC [18]: 24.7
- Activity [19]: 0.2 h⁻¹
- AUC [20]: 23.7
- Activity [21]: 0.36 h⁻¹
- Emax [22]: 44%
- AUC [23]: 15.6
- AUC [24]: 27.3
- Activity [25]: 0.35 h⁻¹
- AUC [26]: 25.6
- AUC [27]: 16.5
- Emax [28]: 64%
- Activity [30]: 0.26 h⁻¹
- Activity [31]: 1.2 10^-4/hr
- AUC [32]: 12.1
- Activity [33]: Active
- Activity [34]: 0.19 h⁻¹
- Activity [35]: inactive
